Data: patent publication US20260055081A1, “Metal Chelator Compounds, Coordination Complexes, and Methods of Preparation and Use Thereof” (University of Puerto Rico, priority 2022, published 2026)
Where a name gives a salt, the structure may show the parent alone.

How the values were obtained:
[1] = tested on: Jurkat Leukemia cell line; assay: Jurkat cell viability (MTT assay); type: cell-based; conditions: Homo sapiens; Jurkat cell line, 72 h, MTT
Protocol: Jurkat cell culturing and cell viability studies. Jurkat cells are nonadherent cells, and they were cultured in an RPMI-1640 media (supplemented with 10% FBS (v/v) and 1% antibiotic solution (v/v) of penicillin/streptomycin) in non-tissue-culture treated 25 mL flasks according to the known protocol provided by the supplier ATCC. The cell passaging was done at 70% confluency by taking 3 mL of cells and diluting to 25 mL of fresh media. The cells were incubated at 37° C. in 5% CO2 atmosphere.
Jurkat cytotoxicity of DefNEtTrp (6), Def (5), NEtTrp (4), Trp, and 1:1 combinations of 5 with 4 and 5 with Trp was determined by the colorimetric 3-(4,5-dimethylthiazol-2-yl)-2,5-diphenyltetrazolium bromide (MTT) assay. Incubation conditions were the same in all the steps. Cells in 80-95% confluence (grown in standard circular tissue culture dishes, BD Falcon) were separately seeded into 96-well plates using phenol red free RPMI-1640 media (containing 10% FBS and 1% streptomycin/penicillin) in a volume of 50 μL at a concentration of 5.0×10^5 cells/mL. Following this procedure, the Jurkat cells were treated immediately. Stock solution of the compounds were first prepared in DMF at 5 mM and stored at 4° C. for up to 30 days. The stock solution was diluted to specific concentrations using 1×PBS (0.2-20 μM) while DMF was maintained at 1% (v/v). 50 μL of diluted solutions were added in all cell containing wells with at least six replicates per concentration (n=6). The final percentage (v/v) of DMF was 0.5%. The cells were also co-treated with 5 with 4 and 5 with Trp in a 1:1 mole equivalent ratio over the same concentration range but as a combined concentration of both compounds. Control wells in the plates consisted of one lane of cells treated with media alone including 0.5% DMF (v/v) as the measure of 100% viable cell growth in the media. Another control lane consisted of no cells with media including 0.5% DMF (v/v) as a measure of the background with no viable cells. The plates were incubated for 72 h. At 4 h before completion of the incubation time, 25 μL of MTT solution (sterile filtered 5 mg/mL solution, dissolved in 1×PBS buffer) was added to each well. During addition of the MTT solution, the plates were protected from light. After completion a 50 μL portion of 4% (w/v) SDS solution (sterile filtered, dissolved in Tris buffer 1M, pH=10) was added to each well and incubated to solubilize formazan crystals after MTT cell labeling. The absorbance of each well was measured at 570 nm (absorbance of the formazan product at pH >10.0) and 800 nm (as a background correction) using a Tecan plate reader. The absorbance of all wells was compared to the absorbance of the untreated cells with the MTT set as the 100% viable cell standard and the absorbance of the no cell control set as the 0% viable cell standard. Nonlinear regression in GraphPad Prism 8 was utilized to fit the growth curve over the various drug concentrations to determine the half-maximal inhibitory concentration (IC50). All cell viability experiments, including non-Jurkat cells, were repeated at least once for biological duplicates. To confirm cell death at the higher concentration dosages of the compounds and combinations, dead cells were blue stained with trypan blue and visually inspected under the microscope.

[2] = tested on: red blood cells; assay: CO-ADD hemolysis assay; type: cell-based, human; conditions: for hemolysis behavior relative to DefNEtTrp (minor hemolysis): human red blood cells
Protocol: CO-ADD hemolysis assay. Dry compounds ranging from 1-2 mg were delivered to the CO-ADD. The compounds were solubilized to a stock concentration of 10 mg/mL in DMSO. Samples were serially diluted 1:2 fold in water to final testing concentrations of […] while keeping the final DMSO concentration to a maximum of 0.32% (v/v). Each sample concentration was prepared in polypropylene 384-well plates (Corning 3657) for hemolysis assays, all in two duplicate plates (n=2). All sample preparation was conducted using liquid handling robots. Human whole blood (Australian Red Cross) was washed three times with three volumes of 0.9% NaCl (w/v) and resuspended in a concentration of […], determined by manual cell count in a Neubauer hemocytometer. Washed cells were added to the compound-containing plates for a final volume of 50 μL. After a 10 min shake on a plate shaker the plates were then incubated for 1 h at 37° C. After incubation, the plates were centrifuged at 1000 g for 10 min to pellet cells and debris, 25 μL of the supernatant was then transferred to reading plates (384 well, polystyrene plated (PS), Corning CLS3680), with hemolysis determined by measuring the supernatant absorbance at […] (OD405) using a Tecan M1000 Pro monochromator plate reader. HC10 and HC50 (concentration at 10% and 50% hemolysis, respectively) were calculated by curve fitting the inhibition values vs. log(concentration) using a sigmoidal dose-response function with variable fitting values for the top, bottom, and slope. The maximal percentage of hemolysis is reported as Dmax. Hemolysis samples are classified by HC10≤32 μg/mL. […] Melittin was used in 8 concentrations in 2-fold serial dilutions with 50 µg/mL being the highest concentration.

[3] = tested on: Jurkat cells; assay: Apoptosis mechanistic cell viability study (Q-VD-OPh); type: cell-based, human; conditions: 10 μM Q-VD-OPh pretreatment, 2 μM cisplatin, 72 h
Protocol: Apoptosis mechanistic cell viability study. Jurkat cells were seeded into 96-well plates, as indicated in the MTT assay described above. The cells were treated with 10 μM of the apoptosis inhibitor Q-VD-OPh (Q-V-O). Another group of cells were treated with media alone. After 1 h incubation, half of the cells supplemented with Q-V-O were treated with 2 μM DefNEtTrp or 2 μM cisplatin, as positive control, while the other half was treated with media alone. The final percentage of DMF was maintained at 0.5% (v/v). The MTT assay was performed with these samples (n=6). A student t-test was performed to evaluate the difference in the viability of cells treated with DefNEtTrp or cisplatin and supplemented with and without Q-V-O.

SMILES | IC50 [1] | hemolysis behavior relative to DefNEtTrp (minor hemolysis) [2] | antiproliferative activity when cells are pretreated with Q-VD-OPh [3] | HC10 and HC50 values ([2]; positive hemolytic control)
NCCNC(=S)N/N=C/c1ncccc1N [NEtTrp, nitrogen ethyl triapine dihydrochloride] | 5900 ± 290 nM | comparable |  | 
N.N.[Cl][Pt][Cl] [cisplatin, reference compound] |  |  | less antiproliferative activity | 
NC(=S)NN=Cc1ncccc1N [Trp, 3-aminopyridine-2-carboxaldehyde-thiosemicarbazone, reference compound] | 1100 ± 40 nM | comparable |  | 
CC[C@H](C)[C@H](NC(=O)CN)C(=O)NCC(=O)N[C@@H](C)C(=O)N[C@H](C(=O)N[C@@H](CC(C)C)C(=O)N[C@@H](CCCCN)C(=O)N[C@H](C(=O)N[C@@H](CC(C)C)C(=O)N[C@H](C(=O)N[C@H](C(=O)NCC(=O)N[C@@H](CC(C)C)C(=O)N1CCC[C@H]1C(=O)N[C@@H](C)C(=O)N[C@@H](CC(C)C)C(=O)N[C@H](C(=O)N[C@@H](CO)C(=O)N[C@@H](Cc1c[nH]c2ccccc12)C(=O)N[C@H](C(=O)N[C@@H](CCCCN)C(=O)N[C@@H](CCCNC(=N)N)C(=O)N[C@@H](CCCCN)C(=O)N[C@@H](CCCNC(=N)N)C(=O)N[C@@H](CCC(N)=O)C(=O)N[C@@H](CCC(N)=O)C(N)=O)[C@@H](C)CC)[C@@H](C)CC)[C@@H](C)O)[C@@H](C)O)C(C)C)C(C)C [Melittin] |  |  |  | within the expected range
O=C(O)c1ccc(-n2nc(-c3ccccc3O)nc2-c2ccccc2O)cc1 [Def, deferasirox, reference compound] | 2600 ± 150 nM | comparable |  | 
